In ChEMBL document CHEMBL1201862, “PubChem BioAssay data set” (2004) one finds EC50, IC50 and AC50 data, which are given here for five compounds.

Broadly, the EC50 is the concentration that produces a half-maximal response. What is called IC50 is the concentration needed to halve the response being measured. As a reminder, the AC50 is the midpoint of the concentration-response curve, whichever way the signal moves.

Calls of active or inactive are those of the source. Bounds are passed on as bounds.

Assay [1] has as its system T-cell. The assay is described as follows: loss of vesicle association with mouse CD8+ T cells – mouse 2C CD8+ T cells, flow cytometry, dose response (AID 485284). The assay is classed as functional.
The nature of assay [2]: viability of HCT116 lacking mutant beta-catenin – cell-based, human colon tumor, dose response (AID 1045).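 Further: HCT116 colon tumor cells with beta catenin knocked out; cells exposed to compound for 60 hours.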 The assay is classed as functional.
The target of assay [3] is Beta-galactosidase (Escherichia coli, UniProt Q8VNN2). In words: detection-enzyme interference by beta-gal modulators – biochemical, E. coli enzyme, set 3, artefact control for CCR6 antagonist project, dose response (AID 504712). The assay is classed as functional.
For assay [4], the target named is Cytochrome P450 2C9 (Homo sapiens, UniProt P11712).
The nature of assay [5]: viability of PTEN-deleted HCT116 cells – cell-based, HCT116 PTEN knockout, dose response (AID 1047).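 Further: HCT116 colon tumor cells with PTEN knocked out; cells exposed to compound for 60 hours before readout; potency for loss of cell viability measured by luminescence.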 The assay is classed as functional.
A short description of assay [6]: Luminescence Cell-Based Dose Retest to Confirm Inhibitors of Cancer Stem Cells. [Related pubchem assays (depositor defined):AID2717, AID2721]. The assay is classed as functional. Particulars: Homo sapiens.
For assay [7], the target named is Heat shock protein HSP 90-alpha (Homo sapiens, UniProt P07900). The format is functional, organism-based.
Assay [8] has as its system INS1. The assay is described as follows: INS-1E survival protection against cytokine death – cell-based, luminescence, retest, dose response (AID 449756).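 Further: cell death triggered by IL-1 beta plus TNF-alpha plus IFN-gamma mixture; protective hits raise ATP signal compared with cytokine alone wells.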 The assay is classed as functional. Particulars: Rattus norvegicus.
Assay [9] deals with Cytochrome P450 2C19 (Homo sapiens, UniProt P33261). In words: Cytochrome panel assay with activity outcomes. Panel member name: p450-cyp2c19 Compounds with AC50 equal or less than 10 uM are considered active. The assay is classed as functional. The conditions noted are these: read-out: AC50.
For assay [10], the target named is Hexokinase (Trypanosoma brucei, UniProt Q38C41). The assay is described as follows: Confirmation assay for inhibitors of Trypanosoma brucei hexokinase 1-Analogue-first series. [Related pubchem assays (depositor defined):AID1430, AID1632, AID2516, AID2560, AID2579, AID2600, AID449725, AID492951]. The assay is classed as functional.
For assay [11], the target named is T1, Mu-type opioid receptor (Homo sapiens, UniProt P35372). The assay is described as follows: HTS Image-Based Screen for Agonists of the MOR Receptor. [Related pubchem assays (depositor defined):AID1777, AID1785, AID1786, AID2133]. The assay is classed as functional.
The target of assay [12] is T2, Kappa-type opioid receptor (Homo sapiens, UniProt P41145). In words: kappa opioid receptor activation potency – imaging, image-based, SAR follow-up (AID 2359). The format is functional.
Assay [13] deals with T2, Kappa-type opioid receptor. The assay is described as follows: kappa opioid receptor blockers, image-based, SAR follow-up (AID 2348). The format is functional.
Assay [14] has as its target T2, Kappa-type opioid receptor. The assay is classed as functional.
Assay [15] concerns the target T3, Delta-type opioid receptor (Homo sapiens, UniProt P41143). The assay is described as follows: DOR agonists, SAR follow-up, image-based (AID 2370). The format is functional.
For assay [16], the target named is T1, Mu-type opioid receptor. The assay is described as follows: mu opioid receptor activators, image-based, SAR follow-up (AID 2352). The assay is classed as functional.
The target in assay [17] is T2, Kappa-type opioid receptor. The assay is classed as functional. This is another data set of the same source.
For assay [18], the target named is T1, Mu-type opioid receptor. The assay is described as follows: mu opioid receptor blockers – image-based, SAR follow-up (AID 2420).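 Further: compounds added before stimulation of receptor with agonist DAMGO.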 The format is functional.
Assay [19] has as its target T3, Delta-type opioid receptor. In words: delta opioid receptor blockers – image-based, SAR follow-up (AID 2357). The assay is classed as functional.
For assay [20], the target named is T3, Delta-type opioid receptor. The assay is described as follows: HTS Image-Based Screen for Agonists of the DOR Receptor. [Related pubchem assays (depositor defined):AID1777, AID1786, AID2133]. The format is functional.
In assay [21] the target is T3, Delta-type opioid receptor. The assay is described as follows: HTS Image-Based Screen for Antagonists of the DOR Receptor. [Related pubchem assays (depositor defined):AID1777, AID1785, AID1786, AID2133]. The format is functional.
For assay [22], the target named is T2, Kappa-type opioid receptor. The assay is described as follows: SAR analysis of small molecule agonists of the kappa opioid receptor via a luminescent beta-arrestin assay. [Related pubchem assays (depositor defined):AID1777, AID1786, AID1966, AID2133, AID2136, AID2348, AID2352, AID2357, AID2359, AID2370, AID2420, AID2478, AID2491, AID2492, AID2493, AID2497, AID2498, AID2500, AID449737, AID488822, AID488842]. The format is functional.

Assay [23] concerns the target Voltage-dependent T-type calcium channel subunit alpha-1H (Homo sapiens, UniProt O95180). The assay is described as follows: human CACNA1H calcium influx blockade – cell-based, synthetic library set 1, calcium flux (AID 493022). The assay is classed as functional. (Calcium flux is commonly read through the fluorescence of an indicator in the cells.)

T2 sequence (P41145 whole entry): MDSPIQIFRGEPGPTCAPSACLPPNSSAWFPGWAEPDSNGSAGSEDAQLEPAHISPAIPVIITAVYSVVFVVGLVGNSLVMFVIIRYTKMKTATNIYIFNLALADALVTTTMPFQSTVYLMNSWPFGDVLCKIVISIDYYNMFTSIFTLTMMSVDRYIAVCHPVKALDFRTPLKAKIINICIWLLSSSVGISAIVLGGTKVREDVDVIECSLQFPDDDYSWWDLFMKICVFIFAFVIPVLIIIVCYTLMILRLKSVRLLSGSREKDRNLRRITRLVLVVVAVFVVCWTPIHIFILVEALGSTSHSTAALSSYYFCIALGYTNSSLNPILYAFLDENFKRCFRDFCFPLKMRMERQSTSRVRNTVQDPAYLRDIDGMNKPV
T1 sequence (P35372 whole entry): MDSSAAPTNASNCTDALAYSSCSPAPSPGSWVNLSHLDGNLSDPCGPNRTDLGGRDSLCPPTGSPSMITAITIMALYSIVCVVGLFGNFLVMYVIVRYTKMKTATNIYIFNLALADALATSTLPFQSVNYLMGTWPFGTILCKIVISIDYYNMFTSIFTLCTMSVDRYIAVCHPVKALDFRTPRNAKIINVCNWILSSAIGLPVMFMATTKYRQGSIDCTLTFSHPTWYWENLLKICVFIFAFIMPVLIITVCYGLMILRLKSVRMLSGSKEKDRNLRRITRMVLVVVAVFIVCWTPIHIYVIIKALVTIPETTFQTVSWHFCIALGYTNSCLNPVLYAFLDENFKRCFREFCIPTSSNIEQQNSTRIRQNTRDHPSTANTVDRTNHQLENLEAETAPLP
T3 sequence (P41143 whole entry): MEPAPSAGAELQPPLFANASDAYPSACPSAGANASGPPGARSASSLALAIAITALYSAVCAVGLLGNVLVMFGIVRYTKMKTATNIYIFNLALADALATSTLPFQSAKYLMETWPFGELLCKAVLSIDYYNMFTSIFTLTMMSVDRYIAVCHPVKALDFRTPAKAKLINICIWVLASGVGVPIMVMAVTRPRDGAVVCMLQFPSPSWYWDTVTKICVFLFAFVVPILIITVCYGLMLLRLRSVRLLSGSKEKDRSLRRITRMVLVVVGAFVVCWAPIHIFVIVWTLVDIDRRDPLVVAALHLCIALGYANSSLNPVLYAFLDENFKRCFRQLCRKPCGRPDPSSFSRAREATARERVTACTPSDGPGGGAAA
Sequence of Hexokinase (Q38C41 whole entry): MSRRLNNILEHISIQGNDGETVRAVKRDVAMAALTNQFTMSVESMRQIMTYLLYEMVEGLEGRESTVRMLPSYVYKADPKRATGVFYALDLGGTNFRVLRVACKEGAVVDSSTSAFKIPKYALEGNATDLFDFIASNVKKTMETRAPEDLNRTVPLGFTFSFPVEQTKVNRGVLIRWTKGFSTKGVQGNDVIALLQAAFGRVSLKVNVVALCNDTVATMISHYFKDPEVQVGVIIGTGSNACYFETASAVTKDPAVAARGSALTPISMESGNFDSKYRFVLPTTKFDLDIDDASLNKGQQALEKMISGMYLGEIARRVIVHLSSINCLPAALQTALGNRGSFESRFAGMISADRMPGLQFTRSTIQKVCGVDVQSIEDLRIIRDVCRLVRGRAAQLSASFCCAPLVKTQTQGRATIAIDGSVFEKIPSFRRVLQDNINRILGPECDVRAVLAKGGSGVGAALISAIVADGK
Sequence of Voltage-dependent T-type calcium channel subunit alpha-1H (O95180 whole entry): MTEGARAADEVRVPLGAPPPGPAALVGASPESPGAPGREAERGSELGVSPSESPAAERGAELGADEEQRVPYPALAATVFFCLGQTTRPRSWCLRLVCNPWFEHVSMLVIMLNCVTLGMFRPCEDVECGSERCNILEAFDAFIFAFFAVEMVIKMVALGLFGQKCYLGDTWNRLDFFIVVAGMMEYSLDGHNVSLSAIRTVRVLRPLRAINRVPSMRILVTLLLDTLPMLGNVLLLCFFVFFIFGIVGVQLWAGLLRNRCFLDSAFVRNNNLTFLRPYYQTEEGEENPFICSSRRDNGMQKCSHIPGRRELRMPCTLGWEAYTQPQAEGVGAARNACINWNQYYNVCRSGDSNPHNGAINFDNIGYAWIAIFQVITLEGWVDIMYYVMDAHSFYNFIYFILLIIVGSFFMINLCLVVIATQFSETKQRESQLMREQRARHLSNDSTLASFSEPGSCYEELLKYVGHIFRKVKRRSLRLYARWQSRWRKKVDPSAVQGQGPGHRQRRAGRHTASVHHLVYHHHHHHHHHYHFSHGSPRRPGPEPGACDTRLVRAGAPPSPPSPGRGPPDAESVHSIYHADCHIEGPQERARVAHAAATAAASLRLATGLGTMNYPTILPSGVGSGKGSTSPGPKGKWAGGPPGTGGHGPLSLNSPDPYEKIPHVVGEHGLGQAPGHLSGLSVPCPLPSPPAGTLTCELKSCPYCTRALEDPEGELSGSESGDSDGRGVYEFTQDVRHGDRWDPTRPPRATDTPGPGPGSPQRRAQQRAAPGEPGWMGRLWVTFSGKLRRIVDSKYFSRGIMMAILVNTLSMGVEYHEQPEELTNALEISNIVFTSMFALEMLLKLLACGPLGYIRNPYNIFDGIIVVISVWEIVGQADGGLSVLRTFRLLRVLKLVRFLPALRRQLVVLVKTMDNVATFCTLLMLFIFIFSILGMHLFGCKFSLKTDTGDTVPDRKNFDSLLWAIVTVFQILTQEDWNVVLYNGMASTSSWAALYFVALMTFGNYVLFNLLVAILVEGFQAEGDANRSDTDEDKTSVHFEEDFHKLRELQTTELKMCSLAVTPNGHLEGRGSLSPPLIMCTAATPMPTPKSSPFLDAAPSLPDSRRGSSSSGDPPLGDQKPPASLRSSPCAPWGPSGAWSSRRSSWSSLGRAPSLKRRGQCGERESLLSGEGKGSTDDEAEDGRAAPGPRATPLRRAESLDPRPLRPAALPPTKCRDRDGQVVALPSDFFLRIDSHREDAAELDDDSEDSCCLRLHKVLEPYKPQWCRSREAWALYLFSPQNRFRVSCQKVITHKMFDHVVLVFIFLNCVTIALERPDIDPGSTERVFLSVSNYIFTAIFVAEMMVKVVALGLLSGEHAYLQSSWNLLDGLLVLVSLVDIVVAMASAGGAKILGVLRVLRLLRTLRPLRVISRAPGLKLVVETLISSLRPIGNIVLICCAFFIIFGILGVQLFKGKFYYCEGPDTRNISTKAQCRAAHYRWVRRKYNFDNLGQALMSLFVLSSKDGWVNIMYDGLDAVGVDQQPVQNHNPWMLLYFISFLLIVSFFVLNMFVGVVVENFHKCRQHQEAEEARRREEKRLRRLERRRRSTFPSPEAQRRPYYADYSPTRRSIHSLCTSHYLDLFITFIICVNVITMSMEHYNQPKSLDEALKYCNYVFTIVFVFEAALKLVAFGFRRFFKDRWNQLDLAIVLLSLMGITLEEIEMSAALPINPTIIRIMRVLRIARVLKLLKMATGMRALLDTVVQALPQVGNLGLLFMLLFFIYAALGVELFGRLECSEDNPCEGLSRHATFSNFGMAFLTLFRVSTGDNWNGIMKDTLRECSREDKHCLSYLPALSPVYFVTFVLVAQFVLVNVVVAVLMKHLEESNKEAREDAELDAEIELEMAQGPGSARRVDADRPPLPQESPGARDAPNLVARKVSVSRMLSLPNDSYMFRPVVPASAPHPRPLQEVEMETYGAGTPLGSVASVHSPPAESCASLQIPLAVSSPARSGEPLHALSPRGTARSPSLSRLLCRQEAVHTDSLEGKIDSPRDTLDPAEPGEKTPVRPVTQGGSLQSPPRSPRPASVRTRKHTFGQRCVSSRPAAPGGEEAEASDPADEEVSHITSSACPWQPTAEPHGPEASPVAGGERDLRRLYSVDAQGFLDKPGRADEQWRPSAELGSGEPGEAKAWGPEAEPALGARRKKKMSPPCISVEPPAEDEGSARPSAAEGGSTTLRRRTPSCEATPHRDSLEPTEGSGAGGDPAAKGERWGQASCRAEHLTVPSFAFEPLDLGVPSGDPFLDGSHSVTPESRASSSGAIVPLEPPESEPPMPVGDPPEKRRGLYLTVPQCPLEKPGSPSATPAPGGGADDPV
Sequence of Beta-galactosidase (Q8VNN2 whole entry): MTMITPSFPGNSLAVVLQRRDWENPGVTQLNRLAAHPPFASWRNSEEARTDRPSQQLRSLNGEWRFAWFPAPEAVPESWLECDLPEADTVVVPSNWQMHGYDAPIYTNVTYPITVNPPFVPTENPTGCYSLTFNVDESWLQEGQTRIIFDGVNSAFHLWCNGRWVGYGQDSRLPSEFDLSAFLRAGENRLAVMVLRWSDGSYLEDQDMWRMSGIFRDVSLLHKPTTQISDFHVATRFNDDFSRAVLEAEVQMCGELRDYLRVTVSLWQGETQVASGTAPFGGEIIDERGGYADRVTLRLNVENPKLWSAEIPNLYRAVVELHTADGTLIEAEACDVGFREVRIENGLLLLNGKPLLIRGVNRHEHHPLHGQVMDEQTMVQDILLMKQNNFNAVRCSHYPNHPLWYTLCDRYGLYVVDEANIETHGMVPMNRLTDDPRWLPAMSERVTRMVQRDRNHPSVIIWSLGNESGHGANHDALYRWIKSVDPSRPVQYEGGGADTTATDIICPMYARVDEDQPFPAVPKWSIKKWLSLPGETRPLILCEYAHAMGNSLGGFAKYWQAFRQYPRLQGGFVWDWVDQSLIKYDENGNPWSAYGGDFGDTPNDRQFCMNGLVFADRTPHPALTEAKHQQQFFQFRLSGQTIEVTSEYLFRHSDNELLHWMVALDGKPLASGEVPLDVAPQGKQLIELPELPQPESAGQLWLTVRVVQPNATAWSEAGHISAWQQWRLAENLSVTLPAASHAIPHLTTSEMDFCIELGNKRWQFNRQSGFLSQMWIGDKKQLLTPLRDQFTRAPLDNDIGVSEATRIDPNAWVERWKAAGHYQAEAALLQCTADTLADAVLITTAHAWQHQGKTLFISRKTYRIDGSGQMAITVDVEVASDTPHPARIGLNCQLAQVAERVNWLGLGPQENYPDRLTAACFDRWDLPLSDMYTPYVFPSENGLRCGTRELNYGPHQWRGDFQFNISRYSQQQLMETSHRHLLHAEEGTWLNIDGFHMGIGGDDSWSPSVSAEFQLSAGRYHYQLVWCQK

Consider `Cc1ccc(C(=O)NCCCN2CCOCC2)c(C)c1`, for which the EC50 in assay [1] is 22.5 µM (inactive).
Consider `Cc1cccc(NC(=S)N/N=C/c2ccc([N+](=O)[O-])s2)c1`, for which the results for the EC50 in assay [2] and in [5] were 1.95 µM (active) and 3.06 µM (active), respectively. In addition, the IC50 in [3] was > 66.6 µM (inactive). Further, the half-maximal activity concentration (AC50) in assay [4] is 1.78 µM (inconclusive); in assay [6], 1.84 µM (active); in assay [7], 15.6 µM (active); in [8], 3.86 µM (active); in assay [9], 1.12 µM (inconclusive).
`COc1ccc(C(=O)Nc2cc(C)ccc2C(=O)O)cc1`: the IC50 in assay [10] was > 25 µM (inactive).
On to `Clc1ccc(CSc2nnc(-c3ccccn3)n2Cc2ccco2)c(Cl)c1`, for which the EC50 in assay [11] was > 32 µM (inactive); in [12] it was 929 nM (active); in [14], 1250 nM; in [15], > 32 µM (inactive); in assay [16] it was > 32 µM (inactive); in assay [17], 2210 nM. The EC50 is > 32 µM (inactive) in assay [20] and 1.86 µM (active) in [22]. Besides, the IC50 in assay [13], in [18], in [19] and in assay [21] was > 32 µM (inactive) in each case.
For `O=C(COc1ccccc1Cl)Nc1nnc(-c2ccc(F)cc2)o1`, the EC50 in assay [23] was 4.6 µM (active).
